For assay [1], the system named is KB. Kind of assay: Cytotoxicity against human KB cells incubated for 48 hrs by MTT assay. The class given is functional, cell-based. (Tetrazolium assays rely on reduction of a dye to a coloured formazan, in cell work by metabolically active cells.)
In assay [2] the test system is MCF7. The experiment in a line: Cytotoxicity against human MCF7 cells incubated for 48 hrs by MTT assay. Format: functional, cell-based. To be noted: MCF7, 48 h.
The subject of assay [3] is A549. Kind of assay: Cytotoxicity against human A549 cells incubated for 48 hrs by MTT assay. Format: functional, cell-based. As to conditions: A549, 48 h.
In assay [4] the test system is A549. Kind of assay: Induction of apoptosis in human A549 cells assessed as necrotic cells at 5 uM after 24 hrs by Annexin-V-FITC/propidium iodide staining based flow cytometric method (reference value: 1.12%). The class given is functional.
The test system of assay [5] is A549. Kind of assay: Induction of apoptosis in human A549 cells assessed as late apoptotic cells at 13.6 uM after 24 hrs by Annexin-V-FITC/propidium iodide staining based flow cytometric method (reference value: 1.40%). Format: functional.
The test system of assay [6] is A549. The experiment in a line: Induction of cell cycle arrest in human A549 cells assessed as accumulation at S phase at 2.5 uM incubated for 24 hrs by flow cytometry (reference value: 33.65%). The class given is functional.
Assay [7] relates to A549. The experiment in a line: Induction of apoptosis in human A549 cells assessed as early apoptotic cells at 1.25 uM after 24 hrs by Annexin-V-FITC/propidium iodide staining based flow cytometric method (reference value: 0.56%). Format: functional.
The test system of assay [8] is A549. The experiment in a line: Induction of cell cycle arrest in human A549 cells assessed as accumulation at S phase at 5 uM incubated for 24 hrs by flow cytometry (reference value: 33.65%). The class given is functional.
Assay [9] concerns A549. Kind of assay: Induction of cell cycle arrest in human A549 cells assessed as accumulation at G2/M phase at 2.5 uM incubated for 24 hrs by flow cytometry (reference value: 10.38%). Format: functional. For orientation: In flow cytometry, cells or beads pass a laser one at a time.
In assay [10] the test system is A549. The experiment in a line: Induction of apoptosis in human A549 cells assessed as necrotic cells at 1.25 uM after 24 hrs by Annexin-V-FITC/propidium iodide staining based flow cytometric method (reference value: 1.12%). Format: functional.
Assay [11] has as its system A549. Kind of assay: Induction of cell cycle arrest in human A549 cells assessed as accumulation at G0/G1 phase at 1.25 uM incubated for 24 hrs by flow cytometry (reference value: 55.79%). Format: functional.
For assay [12], the system named is A549. The experiment in a line: Induction of apoptosis in human A549 cells assessed as necrotic cells at 2.5 uM after 24 hrs by Annexin-V-FITC/propidium iodide staining based flow cytometric method (reference value: 1.12%). Format: functional.
The subject of assay [13] is A549. The experiment in a line: induction of morphological changes in human A549 cells assessed as appearance of apoptotic bodies at 1.25 to 5 uM incubated for 24 hrs by DAPI-staining based microscopic method. The class given is functional, cell-based.
In assay [14] the test system is A549. The experiment in a line: Induction of cell cycle arrest in human A549 cells assessed as accumulation at G0/G1 phase at 5 uM incubated for 24 hrs by flow cytometry (reference value: 55.79%). The class given is functional.
Assay [15] deals with A549. Kind of assay: Induction of apoptosis in human A549 cells assessed as early apoptotic cells at 13.6 uM after 24 hrs by Annexin-V-FITC/propidium iodide staining based flow cytometric method (reference value: 0.56%). Format: functional.
In assay [16] the test system is A549. The experiment in a line: Induction of ROS generation in human A549 cells assessed as increase in fluorescence intensity at 5 uM incubated for 24 hrs by DCFH-DA staining-based flow cytometric analysis relative to control. Format: functional.
In assay [17] the test system is A549. Kind of assay: Induction of cell cycle arrest in human A549 cells assessed as accumulation at S phase at 13.6 uM incubated for 24 hrs by flow cytometry (reference value: 33.65%). Format: functional.
Assay [18] concerns A549. The experiment in a line: Induction of apoptosis in human A549 cells assessed as late apoptotic cells at 1.25 uM after 24 hrs by Annexin-V-FITC/propidium iodide staining based flow cytometric method (reference value: 1.40%). The class given is functional.
The test system of assay [19] is A549. The experiment in a line: Induction of apoptosis in human A549 cells assessed as late apoptotic cells at 2.5 uM after 24 hrs by Annexin-V-FITC/propidium iodide staining based flow cytometric method (reference value: 1.40%). The class given is functional.
Assay [20] concerns A549. Kind of assay: Induction of cell cycle arrest in human A549 cells assessed as accumulation at G0/G1 phase incubated for 24 hrs by flow cytometry. Format: functional, cell-based.
Assay [21] concerns A549. Kind of assay: Induction of apoptosis in human A549 cells assessed as early apoptotic cells at 5 uM after 24 hrs by Annexin-V-FITC/propidium iodide staining based flow cytometric method (reference value: 0.56%). Format: functional.
The test system of assay [22] is A549. Kind of assay: Induction of apoptosis in human A549 cells assessed as necrotic cells at 13.6 uM after 24 hrs by Annexin-V-FITC/propidium iodide staining based flow cytometric method (reference value: 1.12%). The class given is functional.
The test system of assay [23] is A549. Kind of assay: Induction of apoptosis in human A549 cells after 24 hrs by Annexin-V-FITC/propidium iodide staining based flow cytometric method. Format: functional, cell-based.
Assay [24] relates to A549. The experiment in a line: Induction of cell cycle arrest in human A549 cells assessed as accumulation at G2/M phase at 1.25 uM incubated for 24 hrs by flow cytometry (reference value: 10.38%). Format: functional.
Assay [25] relates to A549. Kind of assay: Induction of cell cycle arrest in human A549 cells assessed as accumulation at G0/G1 phase at 2.5 uM incubated for 24 hrs by flow cytometry (reference value: 55.79%). Format: functional.
The test system of assay [26] is A549. Kind of assay: Induction of cell cycle arrest in human A549 cells assessed as accumulation at G2/M phase at 5 uM incubated for 24 hrs by flow cytometry (reference value: 10.38%). Format: functional.
In assay [27] the test system is A549. The experiment in a line: Induction of cell cycle arrest in human A549 cells assessed as accumulation at G0/G1 phase at 13.6 uM incubated for 24 hrs by flow cytometry (reference value: 55.79%). The class given is functional.
For assay [28], the system named is A549. The experiment in a line: induction of morphological changes in human A549 cells assessed as cell shrinkage at 1.25 to 5 uM incubated for 24 hrs by DAPI-staining based microscopic method. Format: functional.
The subject of assay [29] is A549. The experiment in a line: Induction of DNA damage in human A549 cells assessed as gammaH2AX accumulation incubated for 24 hrs by DAPI staining based Immunofluorescence method. The class given is functional, cell-based.
Assay [30] relates to A549. Kind of assay: Induction of ROS generation in human A549 cells incubated for 24 hrs by DCFH-DA staining-based flow cytometric analysis relative to control. The class given is functional, cell-based.
The test system of assay [31] is A549. Kind of assay: Induction of apoptosis in human A549 cells assessed as late apoptotic cells at 5 uM after 24 hrs by Annexin-V-FITC/propidium iodide staining based flow cytometric method (reference value: 1.40%). The class given is functional.
The test system of assay [32] is A549. Kind of assay: Induction of apoptosis in human A549 cells assessed as early apoptotic cells at 2.5 uM after 24 hrs by Annexin-V-FITC/propidium iodide staining based flow cytometric method (reference value: 0.56%). Format: functional.
For assay [33], the target named is DNA topoisomerase 2-alpha (Homo sapiens) (UniProt P11388). The experiment in a line: Inhibition of human topoisomerase-2alpha expressed in baculovirus infected insect cells assessed as reduction in pBR322 DNA relaxation measured after 30 mins by ethidium bromide staining based agarose gel electrophoresis method relative to control.
Chain of DNA topoisomerase 2-alpha (Homo sapiens) (P11388 whole entry): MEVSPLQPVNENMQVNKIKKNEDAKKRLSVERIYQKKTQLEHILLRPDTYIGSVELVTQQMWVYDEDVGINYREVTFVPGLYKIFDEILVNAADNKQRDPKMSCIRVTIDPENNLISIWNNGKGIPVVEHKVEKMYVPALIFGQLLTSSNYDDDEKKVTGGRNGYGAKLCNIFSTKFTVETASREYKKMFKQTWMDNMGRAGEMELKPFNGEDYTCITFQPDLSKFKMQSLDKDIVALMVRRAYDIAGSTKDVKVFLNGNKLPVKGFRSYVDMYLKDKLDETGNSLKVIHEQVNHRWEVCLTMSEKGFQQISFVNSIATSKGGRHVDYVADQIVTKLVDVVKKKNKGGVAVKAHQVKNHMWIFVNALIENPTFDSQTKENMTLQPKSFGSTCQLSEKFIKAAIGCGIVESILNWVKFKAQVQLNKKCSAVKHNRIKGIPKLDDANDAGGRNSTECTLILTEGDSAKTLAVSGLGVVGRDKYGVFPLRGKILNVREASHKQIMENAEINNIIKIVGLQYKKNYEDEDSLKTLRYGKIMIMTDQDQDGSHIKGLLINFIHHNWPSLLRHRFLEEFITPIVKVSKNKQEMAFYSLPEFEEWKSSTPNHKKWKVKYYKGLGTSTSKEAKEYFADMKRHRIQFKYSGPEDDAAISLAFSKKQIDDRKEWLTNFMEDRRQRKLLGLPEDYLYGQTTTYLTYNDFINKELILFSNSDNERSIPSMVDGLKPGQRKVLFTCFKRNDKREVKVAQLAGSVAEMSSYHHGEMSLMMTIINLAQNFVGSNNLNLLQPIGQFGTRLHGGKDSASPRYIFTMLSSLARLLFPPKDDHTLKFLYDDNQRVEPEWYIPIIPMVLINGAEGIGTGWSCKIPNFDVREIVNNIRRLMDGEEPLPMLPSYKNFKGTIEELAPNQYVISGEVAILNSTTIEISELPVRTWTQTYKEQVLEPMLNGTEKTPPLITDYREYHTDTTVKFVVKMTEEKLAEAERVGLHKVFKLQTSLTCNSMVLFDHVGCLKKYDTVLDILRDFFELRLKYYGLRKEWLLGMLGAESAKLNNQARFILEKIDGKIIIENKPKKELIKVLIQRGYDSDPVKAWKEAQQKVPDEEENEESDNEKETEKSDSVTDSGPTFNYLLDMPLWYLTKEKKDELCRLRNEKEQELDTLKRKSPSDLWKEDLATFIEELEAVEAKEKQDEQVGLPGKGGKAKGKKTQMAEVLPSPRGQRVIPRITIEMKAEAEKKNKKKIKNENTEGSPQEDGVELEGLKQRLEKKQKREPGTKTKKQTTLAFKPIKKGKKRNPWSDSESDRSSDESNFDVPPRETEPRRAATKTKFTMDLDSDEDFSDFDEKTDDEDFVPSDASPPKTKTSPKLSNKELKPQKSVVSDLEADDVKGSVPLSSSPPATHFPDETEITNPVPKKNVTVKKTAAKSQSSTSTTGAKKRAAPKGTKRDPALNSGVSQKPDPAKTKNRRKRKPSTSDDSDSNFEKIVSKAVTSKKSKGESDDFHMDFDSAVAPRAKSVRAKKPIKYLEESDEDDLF
The test system of assay [34] is A549. Kind of assay: Induction of cell cycle arrest in human A549 cells assessed as accumulation at G2/M phase at 13.6 uM incubated for 24 hrs by flow cytometry (reference value: 10.38%). The class given is functional.
The test system of assay [35] is A549. The experiment in a line: Induction of cell cycle arrest in human A549 cells assessed as accumulation at S phase at 1.25 uM incubated for 24 hrs by flow cytometry (reference value: 33.65%). The class given is functional.

Structures can show the parent of a compound that is named as a salt. The source made the active and inactive calls. No cut-off for these calls is given here.

The IC50 is the concentration needed to halve the response being measured. Higher therefore signals weaker potency in that assay. `COc1cc(O)c2c(c1)C(=O)C1=C(C2=O)C(OC)OC(C)=C1` (configuration not stated) [ASCOMYCONE A]: the 50% inhibitory concentration (IC50) in assay [1], in assay [2] and in [3] was above 40 µM each time.

On to `COc1cccc2c1C(=O)c1c(O)c3c(c(O)c1C2=O)C[C@@](O)(C(=O)CO)C[C@@H]3O[C@H]1C[C@H](N)[C@H](O)[C@H](C)O1` [DOXORUBICIN HYDROCHLORIDE], for which the IC50 was 2.2 µM in [1], 2.5 µM in assay [2] and 5 µM in assay [3].

As for `COc1cc(O)c2c(c1)C(=O)C(CC(C)=O)=C(C)C2=O`, the concentration for half-maximal inhibition (IC50) in [1], in [2] and in assay [3] was above 40 µM throughout.

Turning to `COc1cc(C)c(Cc2c(C)cc(O)cc2OC)c(O)c1`, the IC50 in [1], in [2] and in [3] was above 40 µM throughout.

`COc1cc(O)c2c(c1)C(=O)C1=C(COC(C)=C1)C2=O`: the half-inhibitory concentration (IC50) in assay [1], in assay [2] and in assay [3] was above 40 µM each time.

`COc1cc(O)c2c(c1)C(=O)c1c(coc1[C@H](C)O)C2=O`: the IC50 in [1], in assay [2] and in [3] was above 40 µM throughout.

Take `COc1cc(O)c2c(c1)[C@@H](O)[C@@H]1C[C@H](C)OC[C@H]1C2=O`: the IC50 in assay [1], in assay [2] and in assay [3] was above 40 µM throughout.

As to `COc1cc(C)cc(O)c1`, the IC50 in assay [1], in assay [2] and in assay [3] was above 40 µM throughout.

Consider `COc1cc(O)c2c(c1)[C@H](O)[C@@H]1C[C@H](C)OC[C@H]1C2=O`, for which the 50% inhibitory concentration (IC50) in assay [1], in assay [2] and in [3] was above 40 µM throughout.

As for `COc1cc(O)c2c(c1)C(=O)C1=C(COC(C)(O)C1)C2=O` (configuration not stated), the half-inhibitory concentration (IC50) in assay [1], in assay [2] and in assay [3] was above 40 µM in each case.

For the compound `COc1cc(O)c2c(c1)[C@@H](O)[C@H]1C[C@H](C)OC=C1C2=O`, the IC50 in [1], in assay [2] and in [3] was above 40 µM each time.

For the compound `COc1cc(O)c2c(c1)C(=O)C1=C(C2=O)C(O)OC(C)=C1` (configuration not stated) [ASCOMYCONE B], the IC50 in assay [1], in [2] and in assay [3] was above 40 µM each time.

Take `COc1cc(O)c2c(c1)C(=O)C1=C(C2=O)[C@H](OC[C@@H]2C(=O)CC[C@H]2C)OC(C)=C1`: the Activity in [4] turned out to be 7.75%; in assay [5], 5.02%; in [6], 30.07%; in assay [7] it was 0.98%; in assay [8], 29.74%; in assay [9], 3.56%. For the same compound, the Activity in assay [10] is reported as 0.73%; in assay [11], 59.51%; in [12], 1.3%; in assay [14], 69.15%; in assay [15], 6.79%; in assay [17], 24.26%. Further, the Activity is 1.14% in [18]; 2.69% in assay [19]; “Dose-dependent effect” in [20]; 1.8% in assay [21]; 2.15% in assay [22]; “Dose-dependent effect” in assay [23]. Further, the Activity was 7.18% in [24]; 66.37% in assay [25]; 1.11% in assay [26]; 30.93% in [27]; “Dose-dependent effect” in assay [29]; “Dose-dependent effect” in assay [30]. Further, the Activity is listed as 10.75% in [31], 0.87% in [32], 44.81% in assay [34] and 33.31% in [35]. The IC50 in assay [1] turned out to be 3 µM; in [2] it was 1.3 µM; in [3], 1.3 µM. In addition, the result in [13] and in [28] was Active. Besides, the “fold change (FC)” value in assay [16] was found to be 5. The inhibition result in [33] was “Active”.

In the case of `COc1cc(O)c2c(c1)C(=O)C1=C(C2=O)[C@](C)(OC)OCC1`, the IC50 in assay [1] came to 16.6 µM; in assay [2], 11.6 µM; in assay [3], 28.2 µM.

`COC1=CC(=O)[C@H](O)[C@H](C)C12Oc1cccc3cccc(c13)O2`: the IC50 in assay [1], in assay [2] and in assay [3] was above 40 µM throughout.

For the compound `COc1cc(O)c2c(c1)[C@@H](O)[C@@H]1C[C@@H](C)OC[C@H]1C2=O`, the IC50 in assay [1], in assay [2] and in [3] was above 40 µM throughout.

Consider `COc1cc(O)c2c(c1)[C@H](O)[C@H](C)CC2=O`, for which the IC50 in assay [1], in assay [2] and in [3] was above 40 µM throughout.

Turning to `COc1cc(O)c2c(c1)C(=O)c1cc(C)ncc1C2=O`, the IC50 in assay [1], in assay [2] and in assay [3] was above 40 µM in each case.

Take `COc1cc(O)c2c(c1)C(=O)C1=C(C2=O)[C@@](C)(OC)OCC1`: the IC50 in assay [1] amounted to 16.6 µM; in [2], 11.6 µM; in assay [3] it was 28.2 µM.

Regarding `COc1cc(O)c2c(c1)[C@@H]1O[C@]3(C)C[C@@H]1[C@@H](CO3)C2=O`, the IC50 in assay [1], in assay [2] and in [3] was above 40 µM each time.

The record behind these values is ChEMBL document CHEMBL4627395, “Cytotoxic Heptaketides from the Endolichenic Fungus Ulospora bilgramii” (J Nat Prod, 2020).
